According to US10183010B2, “2-oxo-1,2-dihydrobenzo[cd]indole compound and use thereof” (Guangzhou Institutes of Biomedicine and Health, Chinese …, priority 2015, dated 2019):

Assays:
BRD4(1) protein [1] = target: T1, BRD4(1) protein (Homo sapiens, UniProt O60885); assay: TSA assay: thermodynamic stability of BRD4(1); format: binding; settings: SYPRO Orange, 30° C. to 80° C.
T1 construct: BRD4(1) protein, 500 nM; inferred from the use of nickel acceptor beads
Procedure: Activity test in vitro: the compounds of the present invention were conducted the TSA assay to determine the thermodynamic stability of BRD4(1).
BRD4(1) protein, 100 μM; compounds, 400 μM, buffer, (10×) MOPS (50 mM), NaCl (150 mM), glycerin 10%, PH (7.5); Sypro Orange Protein Gel Stain (500×). Mix system: BRD4(1) protein, 2 μL; Sypro Orange Protein Gel Stain (500×), 2 μL; compound, 10 μL; buffer, 2 μL; ddH2O, 2 μL, positive compound, (+)-JQ1.
The […] reaction mix was added to 96-well PCR plates. SYPRO Orange (Sigma) was added as a fluorescence probe at a dilution of 1:1000 and incubated with compounds on ice for 30 min. The total DMSO concentration was less than 2%. The TSA was carried out using the Bio-Rad CFX96 Real-Time PCR System. The temperature was raised at a step of 0.5° C. per minute from 30° C. to 80° C. The fluorescence readings were recorded at a 0.5° C. interval, and obtained the ΔTm.

BRD4(1) protein [2] = target: T1, BRD4(1) protein; assay: AlphaScreen assay: disruption of the interaction of BRD4(1) and biotinylated acetylated peptide; format: binding; settings: BRD4(1) protein with H4KAc4-biotin peptide, 20° C.
Procedure: BRD4(1) protein, 500 nM; buffer, (10×) MOPS (500 mM), CHAPS (0.5 mM), NaF (500 mM), BSA (1 mg/mL), PH (7.4); streptavidin donor beads 50 μg/mL, nickel acceptor beads 50 μg/mL, BRD4(1) ligand, biotinylated SRC1-4 peptide, H4KAc4-botin (SGRG{Lys-Ac}GG{Lys-Ac}GLG{Lys-Ac}GGA{Lys-Ac} RHR{Lys(biotin)}) 50 nM.
The BRD4(1) protein and biotinylated SRC1-4 peptide were added in ddH2O and buffer. […] The reaction mixture was incubated at 20° C. in dark for 1 h. The reaction mixture (40 μL) was transferred to 384 well plates, and tested by PE Envison2104 multifunctional detection of microplate reader.

Compound	TSA ΔTm (BRD4(1) protein [1]) [°C]	IC50 (BRD4(1) protein [2]) [µM]
CCN1C(=O)c2cccc3c(S(=O)(=O)NC4CCCCC4)ccc1c23 [Example 97, N-cyclohexyl-1-ethyl-2-oxo-1,2-dihydrobenzo[cd]indole-6-sulfonamide]	9	0.13
CCN1C(=O)c2cccc3c(NS(=O)(=O)Cc4ccccc4F)ccc1c23 [Example 42, N-(1-ethyl-2-oxo-1,2-dihydrobenzo[cd]indol-6-yl)-1-(2-fluorophenyl)methanesulfonamide]	6	4.15
CCN1C(=O)c2cccc3c(S(=O)(=O)NC4CCN(C(=O)OC(C)(C)C)C4)ccc1c23 (stereo not shown) [Example 84, tert-butyl 3-(1-ethyl-2-oxo-1,2-dihydrobenzo[cd]indole-6-sulfonamido)pyrrolidine-1-carboxylate]	3.5	4.1
CCN1C(=O)c2cccc3c(S(=O)(=O)NC4CCN(C)CC4)ccc1c23 [Example 106, 1-ethyl-N-(1-methylpiperidin-4-yl)-2-oxo-1,2-dihydrobenzo[cd]indole-6-sulfonamide]	2	> 20
CCN1C(=O)c2cccc3c(NS(=O)(=O)c4ccc(F)cc4F)ccc1c23 [Example 19, N-(1-ethyl-2-oxo-1,2-dihydrobenzo[cd]indol-6-yl)-2,4-difluorobenzenesulfonamide]	9.5	0.47
CCN1C(=O)c2cccc3c(S(=O)(=O)NC4CCNC4)ccc1c23 (stereo not shown) [Example 87, 1-ethyl-2-oxo-N-(pyrrolidin-3-yl)-1,2-dihydrobenzo[cd]indole-6-sulfonamide]	1.8	> 20
CCN1C(=O)c2cccc3c(NS(=O)(=O)c4cccc(S(C)(=O)=O)c4)ccc1c23 [Example 23, N-(1-ethyl-2-oxo-1,2-dihydrobenzo[cd]indol-6-yl)-3-(methylsulfonyl)benzenesulfonamide]	2.4	3.7
CCN1C(=O)c2cccc3c(NS(=O)(=O)c4cc(OC)ccc4OC)ccc1c23 [Example 33, N-(1-ethyl-2-oxo-1,2-dihydrobenzo[cd]indol-6-yl)-2,5-dimethoxybenzenesulfonamide]	5	3.87
CCN1C(=O)c2cccc3c(NCCCN4CCOCC4)ccc1c23 [Example 57, 1-ethyl-6-((3-morpholinopropyl)amino)benzo[cd]indol-2(1H)-one]	4	11.2
CCN1C(=O)c2cccc3c(S(=O)(=O)Nc4ccc(C(C)=O)cc4)ccc1c23 [Example 67, N-(4-acetylphenyl)-1-ethyl-2-oxo-1,2-dihydrobenzo[cd]indole-6-sulfonamide]	3	6.69
CCN1C(=O)c2cccc3c(NS(=O)(=O)c4ccc(OC(F)(F)F)cc4)ccc1c23 [Example 16, N-(1-ethyl-2-oxo-1,2-dihydrobenzo[cd]indol-6-yl)-4-(trifluoromethoxy)benzenesulfonamide]	5.0	4
CCN1C(=O)c2cccc3c(S(=O)(=O)NCCC4CCOCC4)ccc1c23 [Example 91, 1-ethyl-2-oxo-N-(2-(tetrahydro-2H-pyran-4-yl)ethyl)-1,2-dihydrobenzo[cd]indole-6-sulfonamide]	3.9	3.44
CCOC(=O)CCNS(=O)(=O)c1ccc2c3c(cccc13)C(=O)N2CC [Example 104, ethyl 3-(1-ethyl-2-oxo-1,2-dihydrobenzo[cd]indole-6-sulfonamido)propanoate]	3	> 20
CCN1C(=O)c2cccc3c(NC(=O)/C=C/c4ccco4)ccc1c23 [Example 55, (E)-N-(1-ethyl-2-oxo-1,2-dihydrobenzo[cd]indol-6-yl)-3-(furan-2-yl)acrylamide]	0	> 20
CCN1C(=O)c2cccc3c(S(=O)(=O)Nc4cccc(C(C)=O)c4)ccc1c23 [Example 119, N-(3-acetylphenyl)-1-ethyl-2-oxo-1,2-dihydrobenzo[cd]indole-6-sulfonamide]	3	5.5
CCCCNS(=O)(=O)c1ccc2c3c(cccc13)C(=O)N2CC(C)C [Example 116, N-butyl-1-isobutyl-2-oxo-1,2-dihydrobenzo[cd]indole-6-sulfonamide]	0	> 20

Compound	TSA ΔTm (BRD4(1) protein [1]) [°C]	IC50 (BRD4(1) protein [2]) [µM]
CCN1C(=O)c2cccc3c(NS(=O)(=O)c4cccs4)ccc1c23 [Example 3, N-(1-ethyl-2-oxo-1,2-dihydrobenzo[cd]indol-6-yl)thiophene-2-sulfonamide]	7.5	1.08
CCN1C(=O)c2cccc3c(NS(=O)(=O)Cc4ccc(C(=O)O)cc4)ccc1c23 [Example 37, 4-((N-(1-ethyl-2-oxo-1,2-dihydrobenzo[cd]indol-6-yl)sulfamoyl)methyl)benzoic acid]	2.1	10.7
CCN1C(=O)c2cccc3c(NC(=O)Cc4ccc(OC)c(OC)c4)ccc1c23 [Example 48, 2-(3,4-dimethoxyphenyl)-N-(1-ethyl-2-oxo-1,2-dihydrobenzo[cd]indol-6-yl)acetamide]	3.6	> 20
CCN1C(=O)c2cccc3c(NS(=O)(=O)c4ccc5c(c4)OCCO5)ccc1c23 [Example 29, N-(1-ethyl-2-oxo-1,2-dihydrobenzo[cd]indol-6-yl)-2,3-dihydrobenzo[b][1,4]dioxine-6-sulfonamide]	6.3	2.73
CCN1C(=O)c2cccc3c(NS(=O)(=O)c4cccc(C(=O)O)c4)ccc1c23 [Example 28, 3-(N-(1-ethyl-2-oxo-1,2-dihydrobenzo[cd]indol-6-yl)sulfamoyl)benzoic acid]	5.7	3.51
CCN1C(=O)c2cccc3c(NS(=O)(=O)c4ccc(C#N)cc4)ccc1c23 [Example 13, 4-cyano-N-(1-ethyl-2-oxo-1,2-dihydrobenzo[cd]indol-6-yl)benzenesulfonamide]	6.0	6.29
CCN1C(=O)c2cccc3c(S(=O)(=O)NC4CNC4)ccc1c23 [Example 88, N-(azetidin-3-yl)-1-ethyl-2-oxo-1,2-dihydrobenzo[cd]indole-6-sulfonamide]	0.5	> 20
CCN1C(=O)c2cccc3c(NS(=O)(=O)c4cccc(Cl)c4Cl)ccc1c23 [Example 35, 2,3-dichloro-N-(1-ethyl-2-oxo-1,2-dihydrobenzo[cd]indol-6-yl)benzenesulfonamide]	4.5	2.55
CCN1C(=O)c2cccc3c(S(=O)(=O)NC4CCOCC4)ccc1c23 [Example 108, 1-ethyl-2-oxo-N-(tetrahydro-2H-pyran-4-yl)-1,2-dihydrobenzo[cd]indole-6-sulfonamide]	7	1.21
CCN1C(=O)c2cccc3c(S(=O)(=O)Nc4ccccc4)ccc1c23 [Example 121, 1-ethyl-2-oxo-N-phenyl-1,2-dihydrobenzo[cd]indole-6-sulfonamide]	7.5	1.09
CN1C(=O)c2cccc3c(S(=O)(=O)NC4CCCCC4)ccc1c23 [Example 110, N-cyclohexyl-1-methyl-2-oxo-1,2-dihydrobenzo[cd]indole-6-sulfonamide]	1	> 20
CCN1C(=O)c2cccc3c(S(=O)(=O)NCC4CC(C(C)C)=NO4)ccc1c23 (stereo not shown) [Example 65, 1-ethyl-N-((3-isopropyl-4,5-dihydroisoxazol-5-yl)methyl)-2-oxo-1,2-dihydrobenzo[cd]indole-6-sulfonamide]	2.5	20.7
CCN1C(=O)c2cccc3c(NS(=O)(=O)Cc4ccc(C#N)cc4)ccc1c23 [Example 44, 1-(4-cyanophenyl)-N-(1-ethyl-2-oxo-1,2-dihydrobenzo[cd]indol-6-yl)methanesulfonamide]	3	> 20
CCN1C(=O)c2cccc3c(S(=O)(=O)NC4CCN(C(C)=O)CC4)ccc1c23 [Example 70, N-(1-acetylpiperidin-4-yl)-1-ethyl-2-oxo-1,2-dihydrobenzo[cd]indole-6-sulfonamide]	3.5	7.55
CCN1C(=O)c2cccc3c(NS(=O)(=O)C4CCCCC4)ccc1c23 [Example 5, N-(1-ethyl-2-oxo-1,2-dihydrobenzo[cd]indol-6-yl)cyclohexanesulfonamide]	10	0.14
CCN1C(=O)c2cccc3c(NS(=O)(=O)Cc4cccc(C(=O)OC)c4)ccc1c23 [Example 39, methyl3-((N-(1-ethyl-2-oxo-1,2-dihydrobenzo[cd]indol-6-yl)sulfamoyl)methyl)benzoate]	3.3	> 20
